Experimental data reported in patent US20200172911A1, “USP30 INHIBITORS AND METHODS OF USE” (Genentech, Inc., priority 2012, published 2020).

Legend:
Assay type in all cases: cell-based, human
[1] = tested on: HeLa cells cotransfected with GFP-Parkin; test: mitochondrial degradation assay / DUB cDNA overexpression screen (Tom20 staining); settings: CCCP 20 μM, 24 hours
Experimental: To identify regulators of mitophagy, individual cDNAs from a FLAG-tagged DUB library were cotransfected into HeLa cells with GFP-Parkin using Lipofectamine 2000 (Invitrogen) (1:3 DUB-FLAG: GFP-Parkin cDNA ratio). After 24 hours of expression, cells were treated with […] CCCP for 24 hours, and fixed and stained using anti-Tom20 (Santa Cruz Biotechnology), anti-GFP (Aves Labs) and anti-FLAG (Sigma) primary antibodies. Following staining with secondary antibodies, images of random fields were acquired with a Leica SP5 Laser Scanning Confocal Microscope using a 40×/1.25 oil-objective (0.34 μm/pixel resolution, 1 μm confocal z-step size). Percent of GFP-Parkin and FLAG-DUB cotransfected cells containing Tom20 staining was scored blindly.
To identify DUBs that regulate mitochondria clearance, a FLAG-tagged human DUB cDNA library (97 DUBs) was screened in an established mitochondrial degradation assay (Narendra et al., J. Cell Biol., 183: 795-803 (2008)). In this assay, mitochondria depolarization induced by protonophore carbonyl cyanide 3-chlorophenylhydrazone (CCCP, 20 μM, 24 hours) results in marked loss of mitochondria in cultured cells overexpressing Parkin (as measured by staining for mitochondria outer membrane protein marker Tom20). […] Individual FLAG-tagged DUB cDNAs were cotransfected with GFP-Parkin, and their effects on CCCP-induced mitochondrial (Tom20) clearance were measured. […]

[2] = tested on: GFP-Parkin stable cell lines (HEK-293); test: immunoblot of mitochondrial protein levels during CCCP treatment; settings: CCCP 5 μM, t=6 h, p<0.01
Experimental: For total lysate experiments, cells were lysed after 24 hours in SDS sample buffer (Invitrogen) containing sample reducing agent (Invitrogen) and boiled at 95° C. for 10 minutes. Total lysates were resolved by SDS-PAGE and analyzed by immunoblotting. For immunoprecipitation experiments, cells were treated with 5 μM MG132 and the indicated concentrations and durations of CCCP at 24 hours (overexpression experiments) or 6 days (knockdown experiments) in 0.5% SDS in Tris-Buffered Saline (10 mM TRIS, 150 mM NaCl, pH 8.0) and boiled at 70° C. for 10 minutes. […] Inputs and anti-HA immunoprecipitates were resolved by SDS-PAGE and analyzed by immunoblotting.
Beyond ubiquitination, does USP30 regulate protein turnover in addition to ubiquitination? […] In contrast to the outer membrane proteins, mitochondrial matrix protein HSP60 and inner membrane protein TIMM8A were unchanged by CCCP within this time frame. Overexpression of USP30 in GFP-Parkin stable cells greatly attenuated or abolished the CCCP-induced depletion of MIRO and Tom20 (FIG. 6G, H). Stabilization by USP30 overexpression appeared to be relatively specific for MIRO and Tom20, since CCCP-induced degradation of other mitochondria membrane proteins (MFN-1, TOM70, VDAC) was unaffected (FIG. 6G, H).

[3] = tested on: USP30; test: USP30 knockdown efficiency in HEK-293 cells
Experimental: (§1) To determine Parkin substrates, HEK-293 GFP-Parkin inducible cells were treated with doxycycline for 24 hours, and then treated with 5 μM CCCP or DMSO vehicle control for 2 hours. To determine USP30 substrates, HEK-293T cells were transfected with human USP30 shRNA using Lipofectamine 2000 (Invitrogen) for 6 days, then treated as before. […] Preparation of cellular lysates and immunoprecipitation
Since Parkin and USP30 antagonistically regulate mitochondrial degradation, it was hypothesized that this E3 ligase and DUB act on some common substrates. To identify Parkin and USP30 substrates, global ubiquitination in cells was analyzed by mass spectrometry (MS) following immunoaffinity enrichment of ubiquitinated peptides from trypsin-digested extracts using the ubiquitin branch-specific (K-GG) antibodies. Global ubiquitination was analyzed and quantified by MS in HEK-293 cells in two different sets of conditions: 1) inducible Parkin overexpression, or 2) USP30 knockdown (USP30 knockdown efficiency was 85±5% (see FIG. 7C)). In each set, cells were treated with CCCP (5 μM, 2 hours) or vehicle control (DMSO).

[4] = tested on: GFP-Parkin expressing stable HEK-293 cells; test: HA-ubiquitin immunoprecipitation and immunoblot of MIRO and Tom20; settings: HA-ubiquitin immunoprecipitates, CCCP 5 μM, 2 hours
Experimental: For total lysate experiments, transfected HEK-293 cells were lysed at 24 hours post-transfection in SDS sample buffer (Invitrogen) containing sample reducing agent (Invitrogen). For immunoprecipitation experiments, cells were lysed at 24 hours (overexpression experiments) or 6 days (knockdown experiments) post-transfection in TBS buffer containing 0.5% SDS, and lysates were diluted with a buffer containing 1% Triton-X-100 and protease and phosphatase inhibitors. Ubiquitinated proteins were immunoprecipated from lysates of HA-ubiquitin transfected cells with anti-HA affinity matrix beads (Roche Applied Science). Inputs and precipitates were resolved by SDS-PAGE and analyzed by immunoblotting.
For total lysate experiments, cells were lysed after 24 hours in SDS sample buffer (Invitrogen) containing sample reducing agent (Invitrogen) and boiled at 95° C. for 10 minutes. Total lysates were resolved by SDS-PAGE and analyzed by immunoblotting. For immunoprecipitation experiments, cells were treated with 5 μM MG132 and the indicated concentrations and durations of CCCP at 24 hours (overexpression experiments) or 6 days (knockdown experiments) in 0.5% SDS in Tris-Buffered Saline (10 mM TRIS, 150 mM NaCl, pH 8.0) and boiled at 70° C. for 10 minutes. […] Inputs and anti-HA immunoprecipitates were resolved by SDS-PAGE and analyzed by immunoblotting. […]

[5] = tested on: HEK-293 cells; test: global ubiquitination (K-GG) mass spectrometry, USP30 knockdown; settings: CCCP 5 μM, 2 hours
Experimental: as §1
To identify Parkin substrates, HEK 293T cells stably expressing inducible GFP-Parkin (human) were induced using doxycycline (1 μg/mL) for 24 hours, then treated with 5 μM CCCP or DMSO vehicle control for 2 hours. To determine USP30 substrates, HEK 293T cells were transfected with human USP30 shRNA using Lipofectamine 2000 (Invitrogen) for 6 days, then treated as above.
Immunoaffinity isolation and mass spectrometry methods were used to enrich and identify K-GG peptides from digested protein lysates as previously described (Xu et al., Nat. Biotech., 28: 868-873 (2010); Kim et al., Mol. Cell, 44: 325-340 (2011)). Cell lysates were prepared in lysis buffer (8M urea 20 mM HEPES pH 8.0 with 1 mM sodium orthovanadate, 2.5 mM sodium pyrophosphate, 1 mM ß-glycerophosphate) by brief sonication on ice. Protein samples (60 mg) were reduced at 60° C. for 20 min in 4.1 mM DTT, cooled 10 min on ice, and alkylated with 9.1 mM iodoacetamide for 15 min at room temperature in the dark. […]

Compound	Parkin-transfected cells lacking Tom20 staining [1] [%]	decrease in Tom20 protein level [2]	USP30 knockdown efficiency [3] [%]	increase in level of ubiquitinated MIRO [4] [fold]	USP30 shRNA+CCCP/CCCP ubiquitination ratio for Tom20 ([5]; p=0.005)	USP30 shRNA+CCCP/CCCP ubiquitination ratio for MIRO ([5]; p=0.019)
N#CC(C#N)=NNc1cccc(Cl)c1 [CCCP, carbonyl cyanide 3-chlorophenylhydrazone]	> 80	10+/−1%	–	–	–	–
CCAGAGTCCTGTTCGATTT ((CCAGAGTCCTGTTCGATTT; as printed in the source, key not given here) [human USP30 shRNA]	–	–	85±5	~2.5	3.52	2.95
